Results published in US12318365B2, “Inhibition of dipeptide repeat proteins” (ALS Therapy Development Institute, priority 2019, dated 2025).
“Also recorded” adds a separate entry of the source. Like-named read-outs stand apart in the source and are kept apart here. No end group written: not given here.

System: NSC-34 cells
Assay: LDH assay (cytotoxicity) in NSC-34 cells
Format: cell-based
Conditions: for DRP-induced toxicity: incubated 24 hours; for toxicity: DRP concentrations as low as 300 nM
Excerpt: LDH Assay: The LDH assay is a colorimetric assay that measures cell toxicity and death. […] When cells lose membrane integrity, an enzyme found in living cells called lactate dehydrogenase (LDH) is released into the solution surrounding the dying cell. A form of programmed cell death, apoptosis, as well as other forms of cell death also ultimately lead to a cell's membrane being destroyed, resulting in a large release of LDH into the extracellular space. Thus, LDH is an excellent marker not only for necrosis, but for all instances of cell death. In an LDH assay, a sample of the solution surrounding the cell is isolated, and transferred to a plate containing an LDH reaction mixture. This reaction mixture contains a tetrazolium salt intermediate and other reaction constituents that, when exposed to LDH, convert the tetrazolium salt into a colored Formazan product. This Formazan product can be quantified spectrophotometrically. Greater absorbance readings correspond to more cell death.
One row on the top and bottom of the plate, and two columns on either side of the plate, were left without cells and contained culture medium only to minimize experimental well volume evaporation. After plating, cells were incubated for 24 h at 37° C., 5% CO2 prior to DRP and/or PRMT inhibitor addition. At time of DRP/PRMT inhibitor addition, desired doses of DRP for challenge and inhibitor for treatment were achieved by diluting aliquots of each stock in warm culture medium. During experiments where both PRMT inhibitors and DRPs were used, PRMT inhibitors were always applied to wells first, and followed by DRP application. […] Inhibitor toxicity controls were included as wells treated with the desired doses of drug for the experiment, but no DRP. DRP toxicity controls were included as wells only treated with the doses of DRP used for challenge. Once dosed, plates were incubated for 24 h at 37° C., 5% CO2 prior to running the WST-1 or LDH assay endpoints. Additional controls needed for each endpoint are specified in the “WST-1 Assay” and “LDH Assay” sections of these methods.
LDH Assay: Cells were plated and prepared using the steps described in the “Plating NSC-34 and Dosing with DRPs and PRMT Inhibitors” section of these methods. Other controls for this experiment included several sets of wells with only cells in culture medium (one triplicate designated for “untreated,” one triplicate designated for “lysed” positive control), and wells with culture medium only. An additional control added only to the transfer plate at time of testing was 5 μL LDH only. Testing was performed using colorimetric LDH-Cytotoxicity Assay Kit II (Abcam, Cambridge, MA, USA) per manufacturer's instructions. Final read at 450 nm was performed on a SpectraMax M3 Microplate Reader (Molecular Devices, San Jose, CA, USA). Data analysis included calculation of % LDH release using the following equation: […]
Experiments included three replicates per condition. Each experiment was repeated twice (executed three times total).
(§1) The following conditions were plated in triplicate.
Plates were incubated for 24 h at 37° C., 5% CO2. Cells were tested and data were analyzed by LDH assay.
Cells were plated in culture medium in 2 96-well plates at a density of 3.7×10^4 cells per well, and incubated overnight at 37° C., 5% CO2.
as §1
Cells were plated in culture medium in 2 96-well plates at a density of 3.7×10^4 cells per well, and incubated overnight at 37° C., 5% CO2. […]
The following conditions were plated in triplicate. […]

Molecule | effect on GR15-induced cytotoxicity (300 nM GR15, 24 h, MS023 60 and 30 μM) | abrogation of PR-induced cytotoxicity (300 nM PR15, 24 h, all doses applied (1-60 μM)) | abrogation of ADMe-GR15-induced cytotoxicity (3 μM ADMe-GR15, 24 h, MS023 0.1-10 μM) | abrogation of GR-induced toxicity (3 μM GR15, 24 h, all tested doses (1-60 μM)) | dose dependence of abrogation of GR15-induced cytotoxicity (3 μM GR15, 24 h, dose range of the example) | abrogation of GR-induced toxicity (3 μM GR15, 24 h, doses 0.01, 0.03, 0.1 and 0.3 μM) | abrogation of GR-induced toxicity (3 μM GR15, 24 h, doses 0.3, 1 and 3 μM) | abrogation of GR15-induced cytotoxicity (3 μM GR15, 24 h, doses 1 and 3 μM) | relative potency against GR- vs PR-induced toxicity (3 μM GR15 or PR15, 24 h, MS023 0.01-3 μM) | dose dependence of abrogation of PR15-induced cytotoxicity (3 μM PR15, 24 h, dose range of the example) | abrogation of PR-induced toxicity (3 μM PR15, 24 h, doses 0.01, 0.03 and 0.1 μM) | abrogation of PR-induced toxicity (3 μM PR15, 24 h, doses 0.03, 0.1, 0.3, 1 and 3 μM) | abrogation of PR-induced cytotoxicity (3 μM PR15, 24 h, doses 1 and 3 μM) | abrogation of PR-induced cytotoxicity (3 μM PR15, 24 h, doses 10, 30 and 60 μM) | cytotoxicity of inhibitor alone (no DRP, highest dose 60 μM) | cytotoxicity induced by DRP challenge (DRP 10 nM-3 μM, 24 h) | EC50 (DRP 0.01-3 μM, 24 h, read-out: EC50 of DRP-induced toxicity) | DRP-induced toxicity (DRP 0.01-3 μM) | toxicity (24 h) | EC50 (24 h)
CC(C)Oc1ccc(-c2c[nH]cc2CN(C)CCN)cc1 [MS023] | significantly amplified cytotoxicity | at least partially abrogated | did not abrogate | partially abrogated | potently, and dose-dependently abrogated; also recorded: consistently dose-dependently abrogated | partially abrogated | completely abrogated | completely abrogated | more potently abrogated PR-induced toxicity | potently, and dose-dependently abrogated | partially abrogated | completely abrogated | fully abrogated; also recorded: completely abrogated | partially abrogated | did produce significant cytotoxicity | – | – | – | – | –
GRGRGRGRGRGRGRGRGRGRGRGRGRGRGR [GR15] | – | – | – | – | – | – | – | – | – | – | – | – | – | – | – | induced dose-dependent cytotoxicity | 50 ± 26 nM | produced significant, dose-dependent toxicity | approximately 10% | –
PRPRPRPRPRPRPRPRPRPRPRPRPRPRPR [PR15] | – | – | – | – | – | – | – | – | – | – | – | – | – | – | – | – | – | produced significant, dose-dependent toxicity | approximately 10% | 56 ± 20 nM
